The results in this text go back to PubChem BioAssay AID504322 (Emory University Molecular Libraries Screening Center, 2011).

The source made the active and inactive calls. No rule for the calls is given here.

The experiment deals with CHOP reporter cell assay, percent of control. Put plainly: CHOP reporter inhibitor potency, dose response, cell-based (AID 504322).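 Also: CHO cells carrying a CHOP reporter stimulated with tunicamycin to induce ER stress; potency is for inhibition of the stress-induced reporter signal.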
As for `O=C(Nc1ccc(C(F)(F)F)cc1)c1cc(-c2cccnc2)nc2ccc(Br)cc12`, the IC50 is 3.59 µM. On to `COC(=O)[C@]12OC[C@]34C([C@@H](O)[C@@H]1O)[C@]1(C)CC(=O)C(O)=C(C)[C@@H]1C[C@H]3OC(=O)[C@H](O)[C@@H]24` (some centres not stated), for which the IC50 was < 0.16 µM. The value for `Cc1sc2ncnc(N3CCCCC3C)c2c1C` (configuration not stated) was > 10 µM (inactive); that for `CC(C)c1ccc2c(c1)C1(NN=C(c3ccccc3)S1)C(=O)N2` (configuration not stated) was > 10 µM (inactive). The value for `CCOc1cc(/C=C2/C(=O)ON=C2C)ccc1OCc1ccccc1F` was 9.48 µM (inactive); that for `O=C(NC(Nc1nc2ccc([N+](=O)[O-])cc2s1)(C(F)(F)F)C(F)(F)F)c1ccccc1Cl` was 0.87 µM; that for `COc1ccc(-c2[nH]ncc2N=Nc2cc(C)cc(C)c2)cc1` was 9.27 µM (inactive).

On to `O=C(c1ccc2c3c(cccc13)C(=O)N(O)C2=O)N1CCCCC1`, for which the IC50 was 1.92 µM. The value for `CCCCCCCC(=O)N/N=C/c1ccc(Br)cc1` was 3.51 µM. In the case of `CN(C)CCCn1c(SCC(=O)Nc2nc(-c3cccc(Br)c3)cs2)nc2ccccc2c1=O`, the IC50 was 9.51 µM (inactive). For the compound `CC1=NN(c2nc(-c3ccc(C)cc3)cs2)C(=O)C1N=Nc1ccccc1O` (configuration not stated), the IC50 is 6.66 µM (inactive). `Cc1ccc(NC(=O)C(=O)NCC2OCCc3ccccc32)cc1` (configuration not stated): the IC50 was 8.99 µM (inactive). In the case of `COc1cc(C(=O)OC(C)C(=O)NCC2CCCCC2)cc(NC(=O)c2ccco2)c1OC` (configuration not stated), the IC50 was > 10 µM (inactive). On to `O=C1C(Cl)=C(N2CCCCC2)C(=O)C(Cl)=C1c1cnc(N2CCCCC2)s1`, for which the IC50 was 9.7 µM (inactive). Regarding `CCC1CCCCN1S(=O)(=O)c1ccc(C(=O)Nc2nnc(-c3ccccc3Cl)o2)cc1` (configuration not stated), the IC50 is 9.92 µM (inactive). Then `CCCCc1nc(NCCN)c(C#N)c2c1CSC(C)(C)C2`, with 5.15 µM (inactive). Regarding `Cc1ccc(-c2[nH]ncc2/C=N/n2c(COc3ccccc3)nc3ccccc3c2=O)cc1`, the IC50 is 3.18 µM (inactive). Take `O=C(/C=C/c1cccc([N+](=O)[O-])c1)n1cnc2ccccc21`: the IC50 was 5.36 µM (inactive).

In the case of `O=S1(=O)C=C(Sc2nc3ccccc3s2)c2ccccc21`, the IC50 was 1.26 µM.

Turning to `CC(C)(C)c1cc(CN2CCCC(O)C2)c(O)c(C(C)(C)C)c1` (configuration not stated), the concentration for half-maximal inhibition (IC50) is 5.02 µM.

With `Cc1ccc(/C=N/n2c(C3CCCCC3)n[nH]c2=S)s1`, the IC50 is 5.3 µM (inactive). As to `Cc1cc(Cl)n2c(nc3ccccc32)c1C#N`, the IC50 was > 10 µM (inactive). On to `CC(C)COc1ccc(/C(=N/O)c2ccccc2)cc1`, for which the IC50 is 5.73 µM (inactive). On to `Cc1ccc(C2=NN(C(=O)c3cccs3)C(c3ccccc3O)C2)cc1` (configuration not stated), for which the IC50 was 9.38 µM (inactive). Consider `Cc1ccc(-c2nn(CC(=O)NCc3cc(-c4nn(C)c(=O)c5ccccc45)ccc3C)c(=O)c3ccccc23)cc1`, for which the IC50 is 9.88 µM (inactive). Consider `CC(=O)Nc1ccc(NC2=Nc3ccccc3N3C2=Nc2c(c(C)nn2-c2ccccc2)C3c2ccccc2)cc1` (configuration not stated), for which the IC50 is 4.24 µM. With `CCc1c(C)sc(NC(=O)CSc2nc3c(c(C(F)(F)F)n2)CCc2ccccc2-3)c1C#N`, the IC50 was 9.75 µM (inactive). For `Cn1c(=O)c(C(=O)Nc2ncccc2O)c(O)c2ccccc21`, the IC50 was 9.46 µM (inactive). As to `COc1cc(/C=C2\CC/C(=C\c3cc(OC)c(O)c(OC)c3)C2=O)cc(OC)c1O`, the IC50 is 1.84 µM (inactive). Then `CCCc1cc(-c2nc(N)ncc2-c2ccc3c(c2)OCCCO3)c(O)cc1OC`, with 8.02 µM (inactive). The value for `COc1ccc(-c2nc(NC(=O)Cn3ccc(C(F)(F)F)n3)sc2C)cc1` was > 10 µM (inactive); that for `O=S(=O)(Nc1cc(Sc2cccc3cccnc23)c(O)c2ccccc12)c1ccc(F)cc1` was 2.72 µM. Consider `Cc1ccc(N=Cc2cc3c(cc2O)OC(N)=C(C#N)C3c2ccccc2)cc1` (configuration not stated), for which the IC50 is > 10 µM (inactive). Consider `O=C1c2[nH]nc(-c3ccccc3O)c2C(c2cccc(Cl)c2)N1Cc1ccco1` (configuration not stated), for which the IC50 was 9.62 µM (inactive).

Consider `O=c1[nH]c(NNC(=S)NC2CCCCC2)nc2c1C1(CCCC1)Cc1ccccc1-2`, for which the IC50 is 4.1 µM (inactive).

For the compound `CCCCc1nc2ccccc2c(=O)n1NC(=O)c1c(O)c2ccccc2n(C)c1=O`, the IC50 was > 10 µM (inactive). Turning to `O=C(Cn1c(C(F)(F)F)nc2ccccc21)N=Nc1c(O)[nH]c2ccc(Br)cc12`, the IC50 was > 10 µM (inactive). In the case of `CC(C)(C)C1C/C(=C/c2ccccn2)C(=O)/C(=C/c2ccccn2)C1` (configuration not stated), the IC50 was 0.3 µM. With `CC1=C(C)/C(=N\OS(=O)(=O)c2ccccc2)C=CC1=O`, the IC50 is 2.13 µM. Then `COc1cc(/C=C(/C#N)c2nc3ccccc3c(=O)[nH]2)ccc1O`, with > 10 µM (inactive). In the case of `O=C(CN1CCN(c2ncc(C(F)(F)F)cc2Cl)CC1)NCCNc1ncc(C(F)(F)F)cc1Cl`, the IC50 is 3.88 µM.

Regarding `C[C@H](NC(=O)c1nc[nH]c1C(=O)N[C@@H](Cc1ccccc1)C(=O)OC(C)(C)C)C(=O)OC(C)(C)C`, the IC50 is 5.25 µM (inactive). Take `Cc1nnc(NC(=O)c2sc3nc(-c4cccs4)cc(C(F)(F)F)c3c2N)s1`: the IC50 is 5.97 µM (inactive).

Consider `CC1CCc2cc(F)ccc2N1C(=O)CSc1nnc2c(n1)[nH]c1ccc(F)cc12` (configuration not stated), for which the IC50 was 9.19 µM (inactive). As for `COc1ccc(N=c2oc3ccc(OC)cc3cc2-c2nc3ccccc3[nH]2)cc1`, the IC50 is 9.72 µM (inactive). On to `CCCCCCCCCCCCCCCC[n+]1cccc2ccccc21`, for which the IC50 was 0.41 µM. Take `Cc1cc(O)c(NC(=S)NC(=O)c2ccc(-c3ccc(Cl)cc3)o2)cc1C`: the IC50 was < 0.16 µM. For the compound `CCCN1C=CC(=C2C(=O)c3ccccc3C2=O)C=C1`, the IC50 was 1.78 µM (inactive). For `CS(=O)(=O)c1nc(-c2cccs2)cc(C(F)(F)F)n1`, the IC50 was < 0.16 µM. Consider `Cc1[nH]n(-c2ccccc2)c(=O)c1/C=C1/C=c2ccccc2=N1`, for which the IC50 is 9.74 µM (inactive). As for `Cc1ccccc1OCc1n(CC(=O)OC2CC(C)CCC2C(C)C)c2ccccc2[n+]1C` (configuration not stated), the IC50 is > 10 µM (inactive).

Consider `CC1(c2ccccc2)CC(C)(C)N2C(=O)/C(=C3\SC(=S)NC3=O)c3cccc1c32` (configuration not stated), for which the IC50 is 6.98 µM (inactive).

As for `COc1ccccc1NCC(O)COc1ccc(C(C)(C)C)cc1` (configuration not stated), the IC50 was 9.32 µM (inactive). As to `COc1ccc(/C=N\NC(=O)COc2ccc(C(C)(C)C)cc2)cc1Cn1nc(C)cc1C`, the IC50 was 2.99 µM.

For the compound `CCNc1nc(Oc2c(Cl)cccc2Cl)cc(C(F)(F)F)n1`, the IC50 was 2.74 µM.

With `CC(C)(C)c1ccc(C(=O)NC(=S)NNC(=O)c2cccs2)cc1`, the IC50 is 6.3 µM (inactive). For the compound `CCOc1cc(CNc2ccc(O)cc2)ccc1OCc1ccc(Cl)cc1Cl`, the IC50 was 1.72 µM. `CNc1nc(Sc2cccc(C(F)(F)F)c2)cc(C(F)(F)F)n1`: the IC50 was > 10 µM (inactive). Then `Cn1c2ccccc2c(=O)c2c(=O)n(C3CCCCCC3)c(C3CCCCC3)nc21`, with 9.65 µM (inactive); and `COc1cc(CNCc2ccccn2)ccc1OCc1ccc(Cl)cc1Cl`, with 6.74 µM (inactive).

For `CC(/C=C1\SC(=O)N(CCCC(=O)O)C1=O)=C\c1ccccc1`, the IC50 was < 0.16 µM. Consider `COc1ccc(C2CC(c3c(-c4ccccc4)c4cc(Cl)ccc4[nH]c3=O)=NN2S(C)(=O)=O)cc1OC` (configuration not stated), for which the IC50 was 8.04 µM (inactive).

Consider `O=C(Nc1cc(Cl)ccc1O)c1cc2n(n1)C(C(F)(F)F)CC(c1ccc3c(c1)OCO3)N2` (configuration not stated), for which the IC50 was 1.97 µM. As for `COc1cc(/C=C(\C#N)c2nc3ccccc3[nH]2)cc(Br)c1OCc1ccc(F)cc1`, the IC50 was 6.3 µM (inactive). Then `O=C1CC(Sc2nnnn2-c2ccccc2)C(=O)N1c1cccc(Cl)c1` (configuration not stated), with > 10 µM (inactive); and `Cc1ccc(OCC(=O)N/N=C/c2cn[nH]c2-c2ccc(Cl)c(Cl)c2)cc1`, with 6.3 µM (inactive); and `CC(C)=CCc1c(O)cc2oc3c(CC=C(C)C)c(O)c(O)c(CC=C(C)C)c3c(=O)c2c1O`, with 9.67 µM (inactive). For `Oc1ccc(Br)cc1-c1cc(-c2ccccc2F)[nH]n1`, the IC50 was > 10 µM (inactive). Consider `COc1cc(/C=C2\COC/C(=C\c3cc(OC)c(OC)c(OC)c3)C2=O)cc(OC)c1OC`, for which the IC50 was 3.46 µM. The value for `CCCCCn1c(=O)c(C(=O)Nc2nc3ccccc3[nH]2)c(O)c2ccccc21` was 4.96 µM; that for `O=C(COC(=O)Cc1c(Cl)cccc1Cl)Nc1ccc(OC(F)(F)F)cc1` was > 10 µM (inactive).

`CC(=O)OCC1O[C@@H](O[C@@H]2C[C@H]3C(C)(C)[C@H](OC(C)=O)CC[C@]3(C)[C@H]3CC[C@]45C[C@]4(CC[C@H]5[C@@H](C)C[C@@H](O)[C@H](O)C(C)(C)O)[C@@]32C)[C@H](O)[C@@H](O)[C@@H]1O` (some centres not stated): the IC50 was 5.96 µM (inactive). For `O=c1c(Cl)nc2cc(Cl)ccc2n1CCNc1ncc(C(F)(F)F)cc1Cl`, the IC50 is 2.49 µM. With `O=[N+]([O-])c1cc(S(=O)(=O)C(F)(F)F)ccc1Sc1nc2ccccc2[nH]1`, the IC50 is 9.3 µM (inactive). Regarding `Cc1nc(SCC(=O)Nc2ccc(F)cc2)c(C#N)c(C)c1CC(=O)c1ccc(Br)cc1`, the IC50 was > 10 µM (inactive). The value for `N#CC(C#N)=C1C=CC=CN1/C(=C\c1ccccc1Cl)C(=O)c1ccccc1` was > 10 µM (inactive); that for `CCc1ccc(OCC(=O)NC(NC(=S)Nc2ccc(Cl)cc2)C(Cl)(Cl)Cl)cc1` (configuration not stated) was 5.13 µM (inactive); that for `CCc1ccc2[nH]c(=O)c(C(c3nnnn3Cc3ccco3)N3CCC(C)CC3)cc2c1` (configuration not stated) was 4.96 µM. Consider `CC1(c2ccc(OC(F)F)cc2)NC(=O)N(/N=C/c2c(O)ccc3ccccc23)C1=O` (configuration not stated), for which the IC50 was 8.25 µM (inactive). `O=[N+]([O-])c1ccc(-c2nn(-c3ccccc3)cc2/C=N/n2c(-c3cccs3)n[nH]c2=S)cc1`: the IC50 is > 10 µM (inactive). As for `O=C(NC1CCCCC1)C(c1ccc(F)cc1)N(Cc1ccccc1)C(=O)CN1C(=O)c2ccccc2S1(=O)=O` (configuration not stated), the IC50 is 4.85 µM. For the compound `Oc1ccc(/C=N/Nc2nc(-c3ccc(Cl)cc3)cc(C(F)(F)F)n2)cc1`, the IC50 was 5.8 µM (inactive).
